{"source": "paper PMC8933379", "about": "“Evaluation of the absolute oral bioavailability of the anaplastic lymphoma kinase/c-ROS oncogene 1 kinase inhibitor lorlatinib in healthy participants” (Cancer Chemotherapy and Pharmacology, 2021)", "key": {"[1]": {"details": "cited from earlier work; for Mean half-life: previous drug interaction studies"}, "[2]": {"parameters": "method as in PMID 32441835", "details": "cited from earlier work; for Total drug-related radioactivity (parent plus metabolites) recovered in urine: depends on radioactivity placement on the molecule"}, "[3]": {"details": "planned IV dose formulation, rabbits; earlier toxicology studies, no reference given; cited from earlier work"}, "[4]": {"parameters": "method as in PMID 24819116", "details": "in vitro; cited from earlier work"}, "[5]": {"details": "rats; animal studies, no reference given; cited from earlier work"}, "[6]": {"assay": "Solubility in aqueous media", "type": "physicochemical"}, "[7]": {"parameters": "method as in earlier work", "details": "cited from earlier work"}, "[8]": {"assay": "Absolute oral bioavailability crossover study: plasma pharmacokinetics (LC-MS/MS, non-compartmental analysis)", "type": "in vivo, human", "details": "for half-life: read-out: t½ (plasma terminal half-life) (converted); for Tmax: median (range)", "protocol": "This was an open-label, phase 1, randomized two-sequence, two-treatment, two-period, crossover study in healthy participants. Approximately 12 participants were to be randomized in a 1:1 ratio to receive one of two treatment sequences: lorlatinib 50 mg IV dose (Treatment A) followed by a lorlatinib 100 mg single oral dose (Treatment B), or lorlatinib oral dose followed by lorlatinib IV dose. The IV dose is 100% bioavailable and was, therefore, considered to be the reference in this study. The reference lorlatinib 50 mg single IV dose was administered as 250 mL IV solution (0.20 mg/mL) over approximately 1.25 h at a constant rate in the morning of Day 1. Lorlatinib 100 mg single oral dose was administered as 4 × 25 mg immediate-release free base tablets in the morning of Day 1 with 240 mL ambient temperature water. Participants were instructed to swallow the lorlatinib tablets whole and to not manipulate or chew the tablets prior to swallowing. Both treatments were administered after an overnight fast of at least 10 h. To standardise the conditions on PK sampling days, during the first 4 h after dosing or start of the IV dose, participants were to refrain from eating and drinking beverages other than water or lying down (unless required for safety monitoring). Period 1 was defined as a 7-day period in which participants received Treatment A or B. Period 2 was defined as the 7-day period after Period 1, in which participants received the alternative treatment to before. Following treatment administration, participants were to undergo PK sampling for 144 h with a washout period of at least 10 days between successive lorlatinib doses. The study was conducted at a single Pfizer Clinical Research Unit (CRU) in New Haven, Connecticut, and participants were confined to the CRU from the time of admission (Day 0) until discharge (Day 7 of Period 2).\nThe detection range was 0.05–50 ng/mL or 1 to 1000 ng/mL for low and high concentration samples, respectively. […] Calibration standard responses were linear over the range of 2.50–2500 ng/mL; using a weighted (l/concentration^2) linear least squares regression. […] The lower limit of quantification (LLOQ) for lorlatinib and its metabolite was 2.50 ng/mL.\nPK parameter values were calculated using an internally validated software system (eNCA). Actual sample collection times were used for the PK parameter analysis and samples below the LLOQ were set to 0. Maximum observed plasma concentration, Cmax, and time when Cmax was reached, Tmax, were determined from the observed values. The area under the curve (AUC) from time 0 to the time of the last quantifiable concentration (AUClast) was estimated using the linear/log trapezoidal method. AUCinf was calculated as AUClast + (Clast/kel), where Clast was the predicted plasma concentration at the last quantifiable time point estimated from the log-linear regression analysis and kel was the terminal phase rate constant calculated by a linear regression of the log-linear concentration–time curve. PK parameters based on terminal phase estimation were reported only where a well-characterized terminal phase was observed. A well-characterized terminal phase is defined as one with at least three data points, r^2 ≥ 0.9, and AUCextrap% ≤ 20. Metabolite-to-parent ratios were calculated after adjustment for molecular weights. Clearance (CL) for the IV dose and CL/F for the oral dose were calculated as dose/AUCinf. Volume of distribution during the terminal phase (area) was calculated as IV dose/(kel×AUCinf).\nThe hepatic extraction ratio was calculated for each participant as the hepatic blood clearance divided by hepatic blood flow.\nSummary profiles (mean) of the lorlatinib plasma concentration–time data were plotted by treatment. Nominal PK sampling time was used for summary statistics and summary plots by sampling time."}, "[9]": {"details": "used to estimate hepatic blood clearance; no reference given; cited from earlier work"}, "human blood": {"system": "human blood", "details": "planned IV dose formulation, human blood in vitro; earlier toxicology studies, no reference given; cited from earlier work"}, "[10]": {"details": "dogs; animal studies, no reference given; cited from earlier work"}, "[11]": {"parameters": "method as in PMID 33937953", "details": "co-administered with modafinil; cited from earlier work"}, "[12]": {"details": "cited from earlier work; for Mean half-life: previous drug interaction studies", "remark": "listed apart in the source"}, "[13]": {"details": "100 mg single oral dose of [14C]lorlatinib, healthy participants"}, "[14]": {"details": "100 mg oral tablets vs 50 mg IV, healthy participants, n = 11"}, "[15]": {"details": "lorlatinib 100 mg oral tablets, n = 11, geometric mean (geometric %CV)"}}, "note": "Where two headings read alike, the source gives them in different places."}
{"smiles": "C[C@H]1Oc2cc(cnc2N)-c2c(nn(C)c2C#N)CN(C)C(=O)c2ccc(F)cc21", "note": "[Lorlatinib, (10R)-7-amino-12-fluoro-2,10,16-trimethyl-15-oxo-10,15,16,17-tetrahydro-2H-8,4-(metheno)pyrazolo[4,3-h][2,5,11]-benzoxadiazacyclotetradecine-3-carbonitrile]", "values": [{"measurement": "AUCinf reduction", "setting": "[1]; co-administered with rifampicin", "result": 85, "unit": "%"}, {"measurement": "Mean half-life", "setting": "[1]; lorlatinib alone, rifampin study", "result": 29, "unit": "h"}, {"measurement": "Mean half-life", "setting": "[1]; with the inducer rifampin", "result": 18, "unit": "h"}, {"measurement": "Unchanged lorlatinib recovered in faeces", "setting": "[2]; [13]", "result": "~ 9%"}, {"measurement": "Unchanged lorlatinib recovered in urine", "setting": "[2]; [13]", "result": "< 1", "unit": "%"}, {"measurement": "Total drug-related radioactivity (parent plus metabolites) recovered in urine", "setting": "[2]; first of two values", "result": 48, "unit": "%"}, {"measurement": "Total drug-related radioactivity (parent plus metabolites) recovered in urine", "setting": "[2]; second of two values", "result": 28, "unit": "%"}, {"measurement": "Local vascular tissue irritation", "setting": "[3]", "result": "did not indicate any local vascular tissue irritation"}, {"measurement": "Permeability", "setting": "[4]", "result": "highly permeable"}, {"measurement": "Absolute bioavailability", "setting": "[5]", "result": "approximately 100%"}, {"measurement": "solubility", "setting": "[6]; pH 2.55", "result": 32.4, "unit": "mg/mL"}, {"measurement": "solubility", "setting": "[6]; pH 8.02", "result": 0.17, "unit": "mg/mL"}, {"measurement": "Oral apparent clearance (CL/F), mean (CV%)", "setting": "[7]; after a 100 mg single oral dose", "result": 11, "unit": "L/h"}, {"measurement": "Oral apparent clearance (CL/F), mean (CV%)", "setting": "[7]; at steady-state", "result": 18, "unit": "L/h"}, {"measurement": "Plasma terminal half-life (t½), mean (CV%)", "setting": "[7]", "result": "approximately 24 h"}, {"measurement": "Absolute oral bioavailability: ratio (test/reference) of adjusted means, AUCinf (dn)", "setting": "[8]; [14]", "result": 80.78, "unit": "%"}, {"measurement": "Ratio (test/reference) of adjusted means, AUClast (dn)", "setting": "[8]; [14]", "result": 81.65, "unit": "%"}, {"measurement": "Absolute oral bioavailability: ratio (test/reference) of adjusted means, AUCinf (dn)", "setting": "[8]; 100 mg oral tablets vs 50 mg IV, healthy participants, n = 11, listed as lorlatinib", "result": 81, "unit": "%"}, {"measurement": "Inter-subject variability (%CV) for AUCinf, AUClast and Cmax", "setting": "[8]; both oral administration and IV dosing", "result": "30–38%"}, {"measurement": "AUC(0-inf)", "setting": "[8]; human, plasma, iv, 50 mg, Reference, lorlatinib 50 mg IV, mixed-effects model, read-out: AUCinf (dn), adjusted geometric mean", "result": 5190, "unit": "ng·h/mL"}, {"measurement": "AUC(0-t)", "setting": "[8]; human, plasma, iv, 50 mg, Reference, lorlatinib 50 mg IV, mixed-effects model, read-out: AUClast (dn), adjusted geometric mean", "result": 5030, "unit": "ng·h/mL"}, {"measurement": "AUC(0-inf)", "setting": "[8]; human, plasma, iv, 50 mg, lorlatinib 50 mg IV, dose normalized, n = 11, geometric mean (geometric %CV), read-out: AUCinf (dn)", "result": 5150, "unit": "ng·h/mL"}, {"measurement": "AUC(0-t)", "setting": "[8]; human, plasma, iv, 50 mg, lorlatinib 50 mg IV, dose normalized, n = 11, geometric mean (geometric %CV), read-out: AUClast (dn)", "result": 4990, "unit": "ng·h/mL"}, {"measurement": "half-life", "setting": "[8]; human, plasma, iv, 50 mg, lorlatinib 50 mg IV, n = 11, arithmetic mean ± SD", "result": 27, "unit": "h"}, {"measurement": "AUC(0-inf)", "setting": "[8]; human, plasma, iv, 50 mg, lorlatinib 50 mg IV, n = 11, geometric mean (geometric %CV), read-out: AUCinf", "result": 5150, "unit": "ng·h/mL"}, {"measurement": "AUC(0-t)", "setting": "[8]; human, plasma, iv, 50 mg, lorlatinib 50 mg IV, n = 11, geometric mean (geometric %CV), read-out: AUClast", "result": 4990, "unit": "ng·h/mL"}, {"measurement": "AUC(0-inf)", "setting": "[8]; human, plasma, oral, 100 mg, Test, lorlatinib 100 mg oral tablets, mixed-effects model, normalized to 50 mg IV dose, read-out: AUCinf (dn), adjusted geometric mean", "result": 4190, "unit": "ng·h/mL"}, {"measurement": "half-life", "setting": "[8]; human, plasma, po, 100 mg, lorlatinib 100 mg oral tablets, n = 11, arithmetic mean ± SD", "result": "~25.5", "unit": "h"}, {"measurement": "AUC(0-inf)", "setting": "[8]; human, plasma, po, 100 mg, lorlatinib 100 mg oral tablets, single dose, fasted, n = 11, geometric mean (geometric %CV), read-out: AUCinf", "result": 8290, "unit": "ng·h/mL"}, {"measurement": "Cmax", "setting": "[8]; human, plasma, lorlatinib 50 mg IV, dose normalized, n = 11, geometric mean (geometric %CV), read-out: Cmax (dn)", "result": 392, "unit": "ng/mL"}, {"measurement": "clearance", "setting": "[8]; human, plasma, lorlatinib 50 mg IV, n = 11, geometric mean (geometric %CV)", "result": 162, "unit": "mL/min"}, {"measurement": "Vd", "setting": "[8]; human, plasma, lorlatinib 50 mg IV, n = 11, geometric mean (geometric %CV), read-out: Vss", "result": 305, "unit": "L"}, {"measurement": "Tmax", "setting": "[8]; human, plasma, lorlatinib 50 mg IV, n = 11, read-out: Tmax", "result": 1.28, "unit": "h"}, {"measurement": "Vd/F", "setting": "[8]; human, plasma, lorlatinib 100 mg oral tablets, n = 11, geometric mean (geometric %CV), read-out: Vz/F", "result": 440, "unit": "L"}, {"measurement": "Cmax", "setting": "[8]; lorlatinib 50 mg IV, n = 11, geometric mean (geometric %CV)", "result": 392, "unit": "ng/mL"}, {"measurement": "t½ (plasma terminal half-life)", "setting": "[8]; lorlatinib 100 mg oral tablets, n = 11, arithmetic mean ± SD", "result": "25.54 ± 3.75", "unit": "h"}, {"measurement": "AUClast", "setting": "[8]; [15]", "result": "8109 (33) ng.h/mL"}, {"measurement": "CL/F", "setting": "[8]; [15]", "result": "12.05 (34) L/h"}, {"measurement": "Cmax", "setting": "[8]; [15]", "result": 501, "unit": "ng/mL"}, {"measurement": "Tmax", "setting": "[8]; lorlatinib 100 mg oral tablets, n = 11", "result": "1.50 (1.00–4.02) h"}, {"measurement": "Eh (hepatic extraction ratio)", "setting": "[8]; printed in the 100 mg oral column, plasma clearance × blood-to-plasma ratio 0.985 / hepatic blood flow 90 L/hr, geometric mean (geometric %CV)", "result": 0.118}, {"measurement": "Blood-to-plasma partitioning ratio", "setting": "[9]", "result": 0.985}, {"measurement": "Potential to cause hemolysis", "setting": "human blood", "result": "did not indicate any potential to cause hemolysis"}, {"measurement": "Absolute bioavailability", "setting": "[10]", "result": "~97", "unit": "%"}, {"measurement": "AUCinf reduction", "setting": "[11]", "result": 23, "unit": "%"}, {"measurement": "AUCinf increase", "setting": "[12]; co-administered with itraconazole", "result": 42, "unit": "%"}, {"measurement": "Mean half-life", "setting": "[12]; lorlatinib alone, itraconazole study", "result": 23, "unit": "h"}, {"measurement": "Mean half-life", "setting": "[12]; with the inhibitor itraconazole", "result": 30, "unit": "h"}]}
